In PMC8703412 (Pharmaceuticals, 2021):
≈ marks a conversion by molar mass, not a printed value. Like-named read-outs stand apart in the source and are kept apart here.

Experiments:
[1] = system: Mycobacterium tuberculosis strain 331/88 (i.e., H37Rv); experiment: MIC micromethod in Šula's medium, drug-susceptible Mtb.; assay type: cell-based
[2] = system: Mycobacterium avium 330/88; experiment: MIC micromethod in Šula's medium, M. avium; assay type: cell-based
[3] = system: Mycobacterium kansasii 6509/96 (clinical isolate); experiment: MIC micromethod in Šula's medium, M. kansasii; assay type: cell-based; settings: Mycobacterium kansasii
[4] = Cytotoxicity, CellTiter 96 (MTS) assay; settings: human, Cytotoxicity for HepG2 cells, IC50, 24 h incubation, 1–1000 µM
[5] = Mycobacterium tuberculosis, H37RV, 336 h, 14 d incubation, esters, Table 1, read-out: MIC Mtb. 331/88 14 d
[6] = Mycobacterium tuberculosis, H37RV, 504 h, 21 d incubation, esters, Table 1, read-out: MIC Mtb. 331/88 21 d
[7] = Mycobacterium avium, 330/88, 336 h, 14 d incubation, Table 1, read-out: MIC M. avium 330/88 14 d
[8] = Mycobacterium avium, 330/88, 504 h, 21 d incubation, Table 1, read-out: MIC M. avium 330/88 21 d
[9] = 168 h, 7 d incubation, Table 1, read-out: MIC M. kansasii 6509/96 7 d
[10] = 336 h, 14 d incubation, Table 1, read-out: MIC M. kansasii 6509/96 14 d
[11] = 504 h, 21 d incubation, Table 1, read-out: MIC M. kansasii 6509/96 21 d
[12] = 504 h, text summary over 7, 14 and 21 d, read-out: MIC for M. kansasii 6509/96
[13] = Mycobacterium tuberculosis, H37RV, 336 h, 14 d incubation, precursors, Table 2, read-out: MIC Mtb. 331/88 14 d
[14] = Mycobacterium tuberculosis, H37RV, 504 h, 21 d incubation, precursors, Table 2, read-out: MIC Mtb. 331/88 21 d
[15] = Mycobacterium avium, 330/88, 336 h, read-out: MIC M. avium 330/88 14 d
[16] = Mycobacterium avium, 330/88, 504 h, read-out: MIC M. avium 330/88 21 d
[17] = 168 h, read-out: MIC M. kansasii 6509/96 7 d
[18] = 336 h, read-out: MIC M. kansasii 6509/96 14 d
[19] = 504 h, read-out: MIC M. kansasii 6509/96 21 d
[20] = Mycobacterium avium, 330/88, 336 h, 14 d incubation, precursors, Table 2, read-out: MIC M. avium 330/88 14 d
[21] = Mycobacterium avium, 330/88, 504 h, 21 d incubation, precursors, Table 2, read-out: MIC M. avium 330/88 21 d
[22] = 168 h, 7 d incubation, precursors, Table 2, read-out: MIC M. kansasii 6509/96 7 d
[23] = 336 h, 14 d incubation, precursors, Table 2, read-out: MIC M. kansasii 6509/96 14 d
[24] = 504 h, 21 d incubation, precursors, Table 2, read-out: MIC M. kansasii 6509/96 21 d

| SMILES | MIC [1, 5] [µM] | MIC [1, 6] [µM] | MIC [2, 7] [µM] | MIC [2, 8] [µM] | MIC [3, 9] [µM] | MIC [3, 10] [µM] | MIC [3, 11] [µM] | IC50 at 24 h [4] [µM] | MIC [1, 13] [µM] | MIC [1, 14] [µM] | MIC [3, 17] [µM] | MIC [3, 19] [µM] | MIC [3, 23] [µM] | MIC [3, 24] [µM] | further results |
| --- | --- | --- | --- | --- | --- | --- | --- | --- | --- | --- | --- | --- | --- | --- | --- |
| CC(=O)Nc1ccc(OC(=O)C(C)=NNC(=O)c2ccncc2)cc1 [3p, 4-Acetamidophenyl 2-(2-isonicotinoylhydrazineylidene)propanoate] | 0.25 (≈ 0.0851 µg/mL) | 0.5 (≈ 0.17 µg/mL) | 1000 (≈ 340 µg/mL) | 1000 (≈ 340 µg/mL) | 8 (≈ 2.72 µg/mL) | 16 (≈ 5.45 µg/mL) | 16 (≈ 5.45 µg/mL) | > 1000 |  |  |  |  |  |  | MIC [3, 12]: 8 to 16 µM (≈ 2.72 to 5.45 µg/mL) |
| Oc1cccc2cccnc12 [Quinolin-8-ol, reference compound] |  |  |  |  |  |  |  |  | 8 (≈ 1.16 µg/mL) | 8 (≈ 1.16 µg/mL) | 16 (≈ 2.32 µg/mL) | 32 (≈ 4.65 µg/mL) |  |  | MIC [2, 15]: 64 µM (≈ 9.29 µg/mL); MIC [2, 16]: 64 µM (≈ 9.29 µg/mL); MIC [3, 18]: 32 µM (≈ 4.65 µg/mL) |
| Oc1ccc(Oc2ccccc2)cc1 [4-phenoxyphenol, reference compound] |  |  |  |  |  |  |  |  | 64 (≈ 11.9 µg/mL) | 64 (≈ 11.9 µg/mL) |  |  | 64 (≈ 11.9 µg/mL) | 125 (≈ 23.3 µg/mL) | MIC [2, 20]: 250 µM (≈ 46.6 µg/mL); MIC [2, 21]: 500 µM (≈ 93.1 µg/mL); MIC [3, 22]: 32 µM (≈ 5.96 µg/mL) |
| Cc1ncc([N+](=O)[O-])n1CCO [Metronidazole, reference compound] |  |  |  |  |  |  |  |  | > 1000 | > 1000 |  |  | > 1000 | > 1000 | MIC [2, 20]: > 1000 µM; MIC [2, 21]: > 1000 µM; MIC [3, 22]: 1000 µM (≈ 171 µg/mL) |
| Cc1ccc(C(C)C)c(O)c1 [Thymol, reference compound] |  |  |  |  |  |  |  |  | 64 (≈ 9.61 µg/mL) | 125 (≈ 18.8 µg/mL) | 125 (≈ 18.8 µg/mL) |  | 250 (≈ 37.6 µg/mL) | 500 (≈ 75.1 µg/mL) | MIC [2, 20]: 250 µM (≈ 37.6 µg/mL); MIC [2, 21]: 500 µM (≈ 75.1 µg/mL) |
| Cc1ccc(C(C)C)cc1O [Carvacrol, reference compound] |  |  |  |  |  |  |  |  | 125 (≈ 18.8 µg/mL) | 250 (≈ 37.6 µg/mL) | 125 (≈ 18.8 µg/mL) | 500 (≈ 75.1 µg/mL) |  |  | MIC [2, 15]: 250 µM (≈ 37.6 µg/mL); MIC [2, 16]: 500 µM (≈ 75.1 µg/mL); MIC [3, 18]: 250 µM (≈ 37.6 µg/mL) |
| Oc1cc(Cl)ccc1Oc1ccc(Cl)cc1Cl [Triclosan, 5-chloro-2-(2,4-dichlorophenoxy)phenol, reference compound] |  |  |  |  |  |  |  |  | 32 (≈ 9.27 µg/mL) | 32 (≈ 9.27 µg/mL) | 16 (≈ 4.63 µg/mL) | 32 (≈ 9.27 µg/mL) |  |  | MIC [2, 15]: 64 µM (≈ 18.5 µg/mL); MIC [2, 16]: 64 µM (≈ 18.5 µg/mL); MIC [3, 18]: 32 µM (≈ 9.27 µg/mL) |
| C/C(=N\NC(=O)c1ccncc1)C(=O)Oc1ccc(Cl)cc1 [3g, 4-Chlorophenyl (E)-2-(2-isonicotinoylhydrazineylidene)propanoate] | ≤ 0.125 | ≤ 0.125 | 500 (≈ 159 µg/mL) | 1000 (≈ 318 µg/mL) | 4 (≈ 1.27 µg/mL) | 8 (≈ 2.54 µg/mL) | 16 (≈ 5.08 µg/mL) | > 1000 |  |  |  |  |  |  | melting point: 184 to 186.1 °C |
| C/C(=N\NC(=O)c1ccncc1)C(=O)OCc1ccncc1 [3n, Pyridin-4-ylmethyl (E)-2-(2-isonicotinoylhydrazineylidene)propanoate] | 0.5 (≈ 0.149 µg/mL) | 1 (≈ 0.298 µg/mL) | ≥ 1000 | ≥ 1000 | 8 (≈ 2.39 µg/mL) | 16 (≈ 4.77 µg/mL) | 16 (≈ 4.77 µg/mL) | > 1000 |  |  |  |  |  |  | MIC ([1]; Mycobacterium tuberculosis, H37RV, 504 h, 14 and 21 d, read-out: MIC for Mtb.): 0.5 to 1 µM (≈ 0.149 to 0.298 µg/mL); MIC [3, 12]: 8 to 16 µM (≈ 2.39 to 4.77 µg/mL); melting point: 126 to 128 °C |
| NNC(=O)c1ccncc1 [INH 1, Isoniazid, reference compound] | 1 (≈ 0.137 µg/mL) | 1 (≈ 0.137 µg/mL) | > 250 | > 250 | 8 (≈ 1.1 µg/mL) | 8 (≈ 1.1 µg/mL) |  | > 1000 |  |  |  | 16 (≈ 2.19 µg/mL) | 8 (≈ 1.1 µg/mL) | 8 (≈ 1.1 µg/mL) | MIC ([1]; 14 d incubation, precursors, Table 2, read-out: MIC Mtb. 331/88 14 d): 1 µM (≈ 0.137 µg/mL); MIC ([1]; 21 d incubation, precursors, Table 2, read-out: MIC Mtb. 331/88 21 d): 1 µM (≈ 0.137 µg/mL); MIC ([2]; 14 d incubation, precursors, Table 2, read-out: MIC M. avium 330/88 14 d): >250 µM; MIC ([2]; 21 d incubation, precursors, Table 2, read-out: MIC M. avium 330/88 21 d): >250 µM; MIC [3, 22]: 4 µM (≈ 0.549 µg/mL) |
| C/C(=N\NC(=O)c1ccncc1)C(=O)Oc1ccc(F)cc1 [3f, 4-Fluorophenyl (E)-2-(2-isonicotinoylhydrazineylidene)propanoate] | 0.25 (≈ 0.0753 µg/mL) | 0.5 (≈ 0.151 µg/mL) | 500 (≈ 151 µg/mL) | 500 (≈ 151 µg/mL) | 2 (≈ 0.603 µg/mL) | 4 (≈ 1.21 µg/mL) | 4 (≈ 1.21 µg/mL) | > 1000 |  |  |  |  |  |  | melting point: 174.1 to 177.2 °C |
